Measured values as given in US8309768B2, “FTY720-derived anticancer agents” (The Ohio State University Research Foundation, priority 2010, dated 2012).

How the values were obtained:
[1] = system: lymphocytes in peripheral blood; assay: In vivo evaluation of T-lymphocyte homing; conditions: CD2F1 mice, i.p., 6 h
Experimental: In vivo evaluation of T-lymphocyte homing. […] Six hours later, animals were sacrificed, and peripheral blood mononuclear cells were prepared as described. Dragun et al., Kidney Int 65, 1076-1083 (2004). Cells were stained with FITC-labeled rat anti-mouse CD3 molecular complex and PE-labeled rat anti-mouse CD45RA (4° C., in darkness, 30 min), and analyzed by flow cytometry.

[2] = system: Hep3B cells; assay: MTT cell viability assay, Hep3B; format: cell-based; conditions: Homo sapiens, 24 h of treatment
Experimental: (§1) Cell lines, culture and reagents. The HCC cell lines Hep3B, PLC5 and Huh7, as well as primary nonmalignant human hepatocytes were used in this study. Cancer cells were cultured in Dulbecco's Modified Eagle's medium (DMEM) supplemented with 10% fetal bovine serum (FBS). Hepatocytes were maintained in defined Hepatocyte Culture Medium. […] Various polyclonal and monoclonal antibodies were used for western blotting, immunocytochemical, and flow cytometric analyses.
(§2) Cell viability assay. Cell viability was assessed by 3-(4,5-dimethylthiazol-2-yl)-2,5-diphenyl-2H-tetrazolium bromide (MTT) assays in six replicates. Cells were seeded (4,000 cells/well; 96-well plate) for 24 h and treated with test agents in 5% FBS-supplemented DMEM. After treatment, cells were incubated in medium containing 0.5 mg/ml MTT (37° C., 2 h). Reduced MTT was dissolved in DMSO (200 μL/well) and absorbances measured at 570 nm.

[3] = system: PLC5 cells; assay: MTT cell viability assay, PLC5; format: cell-based; conditions: 24 h of treatment
Experimental: as §1, §2

[4] = target: T1, S1P1 receptor-overexpressing Huh7 cells (Homo sapiens, UniProt P21453); assay: Cell viability in stable S1P1 receptor transfectants; format: cell-based; conditions: two stable S1P1 clones vs wild-type Huh7
T1 construct: expressed in transfected cells
T1 sequence (P21453 whole entry): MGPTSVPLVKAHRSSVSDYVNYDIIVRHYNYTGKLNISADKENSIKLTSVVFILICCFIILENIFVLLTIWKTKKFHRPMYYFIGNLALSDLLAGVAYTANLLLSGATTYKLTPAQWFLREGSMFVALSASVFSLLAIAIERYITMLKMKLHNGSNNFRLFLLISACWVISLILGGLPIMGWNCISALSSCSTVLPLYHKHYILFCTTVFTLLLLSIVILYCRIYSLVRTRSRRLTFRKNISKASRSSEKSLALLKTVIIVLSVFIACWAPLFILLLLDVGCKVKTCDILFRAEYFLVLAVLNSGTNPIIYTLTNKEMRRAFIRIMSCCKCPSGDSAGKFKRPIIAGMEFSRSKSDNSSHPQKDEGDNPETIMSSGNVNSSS
Experimental: as §2
Overexpression of S1P1 Receptors. Huh7 or Hep3B cells were transfected with plasmids encoding S1PR1, Flag-tagged GST-π or hemagglutinin (HA)-tagged, CA-Akt. The corresponding empty vectors were used as controls. Stable clones were selected over 3 weeks by geneticin, and the expression of cloned proteins was confirmed by Western blotting.

[5] = system: primary CLL cells; assay: Cytotoxicity in primary CLL cells (Annexin V / propidium iodide flow cytometry); format: cell-based
Experimental: Antitumor and other effects of OSU-2S were also evaluated in Chronic Lymphoid Leukemia cells. OSU-2S cytotoxicity in primary CLL cells is measured at 24 hrs by staining for Annexin V and Propidium Iodide using Flow cytometer. The number of live cells (stained negative for both the stains) were normalized to untreated control. Fludarabine metabolite (2-Fara) was used as a control.
The effect of OSU-2S was evaluated in 3 different CLL cell lines (WROTH<THOU, and RAHUE) over a 24 hour period, as shown in FIG. 9. Time dependent OSU-2S cytotoxicity in primary CLL cells was measured by treating the cells with OSU-2S (8 μM) for indicated period of time and washed and cultured in the fresh media for 24 hr. The number of live cells stained negative for Annexin V and Propidium Iodide were measured at 24 hrs by using Flowcytometer and normalized to untreated control.
CD37 activation and OSU-2S produced enhanced cytotoxicity in CLL cells, as detected by flow cytometer at 24 hr. in CLL cells treated with CD37 antibody and cross linker or OSU-2S 8 μM or with both are stained for Annexin V and propidium iodide at 24 hr.

[6] = target: T2, PP2A (Serine/Threonine Phosphatase 2A) (Homo sapiens, UniProt P67775); assay: PP2A functional enzymatic assay (malachite green) in primary CLL cells; format: cell-based; conditions: 24 hrs, OSU-2S 8 μM, untreated about 0.07
T2 construct: endogenous in cells; host or cells: primary CLL cells; Ramos cells
T2 sequence (P67775 whole entry): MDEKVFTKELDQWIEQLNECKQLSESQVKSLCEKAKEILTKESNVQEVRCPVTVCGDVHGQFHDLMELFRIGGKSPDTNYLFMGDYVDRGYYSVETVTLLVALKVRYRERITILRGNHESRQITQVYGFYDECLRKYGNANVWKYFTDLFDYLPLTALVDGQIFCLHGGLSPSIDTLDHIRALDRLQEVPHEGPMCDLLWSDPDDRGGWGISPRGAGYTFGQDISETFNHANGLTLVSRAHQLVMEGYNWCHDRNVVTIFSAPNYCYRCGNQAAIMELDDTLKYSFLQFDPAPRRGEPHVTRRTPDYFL
Experimental: The ability of OSU-2S to induce PP2A (Serine/Threonine Phosphatase 2A) activity in primary CLL cells was measured at 24 hrs by a functional enzymatic assay. Lysates made from OSU-2S 8 μM treated cells are used to immunoprecipitate PP2Ac which was then used as an enzyme to cleave the specific phosphor-peptide substrate in the functional assay. The cleaved free phosphates were measured by adding malachite green detection solutions and measuring the absorbance at A650 nm. Ramos cells were also included, and FTY720 was used as the control.

[7] = system: CLL cells; assay: Western blot analysis in CLL cells (PARP, caspase 3, caspase 9); format: cell-based
Source text: Western blot analysis as carried out to further observe the effects of OSU-2S in CLL cells. […] OSU-2S in CLL activates caspase, as evidenced by cleavage of poly (ADP-ribose) polymerase (PARP). Jurkat cell with or without UV irradiation were included as controls. […] OSU-2S was also shown to activate caspase 3 in CLL cells. […] Finally, OSU-2S activates caspase 9 in CLL.

[8] = system: SphK2 siRNA-transfected Huh7 cells; assay: Cell viability after siRNA-mediated knockdown of SphK2; format: cell-based; conditions: SphK2 siRNA vs scrambled
Experimental: as §2
Small interfering (si)RNA- or short hairpin (sh)RNA-mediated knockdown. PLC5 and Huh7 cells were transfected with the following siRNA duplexes or shRNA plasmids according to the manufacturer's protocol for the knockdown of target genes: siRNA: glutathione S-transferase (GST)-π and sphingosine kinase 2 (SphK2); shRNA constructs: pKD-PKCδ-v2. Stable clones were isolated from Huh7 cells transfected with shRNA plasmids were further subjected to stable clone isolation by geneticin. Immunoblotting was performed to confirm the knockdowns.

## CCC[C@@](N)(CO)CCc1ccc(OCCCCCC(C)C)cc1 [OSU-2S, (S)-2-amino-2-(4-[(6-methylheptyl)-oxy]phenethyl)pentan-1-ol]
[1]; 5 mg/kg
  effect on number of T lymphocytes in peripheral blood: modest decrease
[1]; 1 and 2 mg/kg
  effect on number of T lymphocytes in peripheral blood: no appreciable effect
[1]
  changes in circulating B lymphocytes: no comparable changes
[2]
  IC50: 2.4 µM
[3]
  IC50: 3.5 µM
[4]
  effect of S1P1 receptor overexpression on antiproliferative activity: no protective effect
[5]; 8 μM for indicated time, washed, cultured 24 hr, 3 CLL cell lines
  time dependent cytotoxicity: decreased number live cells over time
[5]; CLL cells, 24 hr, OSU-2S 8 μM and/or CD37 antibody and cross linker
  live cells (negative for Annexin V and propidium iodide): about 30%
[5]; primary CLL cells, 24 hrs, OSU-2S at 8 μM
  growth (live cells normalized to untreated control): about 30%
[6]
  PP2A activity, absorbance at A650 nm: about 0.20
[7]; 24 and 48 hours, products at about 16-18 kD
  caspase 3 activation: caspase 3 cleaved products
[7]; 24 and 48 hours, vs untreated
  PARP cleavage: higher levels of PARP
[7]; products at about 30-34 kD
  caspase 9 activation: caspase 9 cleaved products
[8]
  effect of SphK2 knockdown on antiproliferative activity (sensitizing effect): not observed
